Experimental data: patent US4564627A, “Feed composition” (Nihon Nohyaku Co., Ltd., priority 1982, dated 1986)

Legend:
broilers [1] = test: Abdominal fat deposit of broilers (Test Example 1); type: in vivo, "A A Fuji" broilers (chicken)
Procedure: (§1) To each group consisting of 30 "A A Fuji" broilers (15 male, 15 female), a commercially available early period broiler feed (crumble form, Cp 22%, ME 3,030 kcal/kg) was given from beginning of feeding to 4 week age, and a latter period broiler feed (mash form, Cp 18%, ME 3,030 kcal/kg) was given ad libitum from 4 week age to 10 week age. The test period was from Oct. 10, 1981 through Dec. 20, 1981. Addition of test compounds to the above feeds in predetermined concentrations was conducted from 3 week age through the completion of the test.
(§2) Five broilers at 6 week age, five broilers at 8 week age and ten broilers at 10 week age were taken out from each group and slaughtered. Immediately after slaughtering, they were cooled in water for about 2 hr and the body weight of each slaughtered broiler was measured and subsequently they were stored at 2° C. for about 20 hr. Then, in order to measure abdominal fat, mesentary fat was removed and fat adhered to from gizzard to proventriculus was collected and weighed as the weight of abdominal fat. This weight was divided by body weight to obtain abdominal fat deposit per 100 g of body weight. Further, liver fat was also collected and weighed. A liver under freeze storage was cut into slices in a total quantity of 2 to 3 g. The slices were placed in a cylindrical filter paper and weighed. Then, these slices were dried for 3 hr in a hot air drier kept at 90° C. and subsequently extracted for 17 hr with ethyl ether in a Soxhlet fat extractor. After drying the extract for 3 hr at 60° C. and weighing the residue, crude fat content in liver was calculated.

laying hens [2] = test: Strength of eggshell of laying hens (Test Example 2); type: in vivo
From the text: (§3) As test hens, commercially available laying hens of 480 day age were used. The control group fed with a feed not containing any compound of this invention consisted of 100 laying hens, and each test group fed with a feed containing a compound of this invention consisted of 10 laying hens. The test was repeated twice. The test period was 16 weeks from Nov. 17, 1981 to Mar. 8, 1982. The first 4 weeks from the start was a preliminary observation period, during which each group was controlled so as to give the same egg production rate. As the feed, a commercially available feed for laying hens (Cp 16% or above, ME 2,800 kcal/kg or above) was used. From the 5th week, predetermined quantities of test compounds were uniformly added to this feed and the resulting blended feeds were given to test groups. Feeds and water were given ad libitum. Constant lighting was made for 14 hr a day. Egg production rate was daily recorded for each individual hen and egg weight for each test group. Feed intake quantity was obtained by calculating on every other week a difference between quantity fed and quantity left. For examining egg quality, strength of eggshell and thickness of eggshell were measured for all normal eggs laid during a period of the previous day of measurement to 3 P.M. of the measurement day. Strength of eggshell was measured by a FHK eggshell strength tester model FN-597, and thickness of eggshell by a dial thickness gauge.

LD50 mouse (male) = details: in vivo
From the text: Examples of the compounds represented by the general formula [1] according to this invention and their toxicities are shown below.

[3] = Growth of body weight of broilers (Test Example 1); type: in vivo, "A A Fuji" broilers (chicken); details: for Body weight at week age 0: week age 0 (before addition); for Body weight at week age 3: week age 3 (start of addition)
Procedure: as §1
(1) Growth of body weight
[…] All broilers were measured and an average body weight was calculated for each group.

broilers [4] = test: Crude fat content in liver of broilers (Test Example 1); type: in vivo, "A A Fuji" broilers (chicken)
Procedure: as §1, §2

laying hens [5] = test: Thickness of eggshell of laying hens (Test Example 2); type: in vivo
From the text: as §3

CC(C)OC(=O)C(C(=O)OC(C)C)=C1SCCS1 [compound 6]
Abdominal fat deposit (broilers [1]; 6w, 100 ppm in feed): 3.23 g/100 g | Abdominal fat deposit (broilers [1]; 6w, 200 ppm in feed): 3.24 g/100 g | Abdominal fat deposit (broilers [1]; 6w, 400 ppm in feed): 3.08 g/100 g | Abdominal fat deposit (broilers [1]; 6w, 800 ppm in feed): 3.14 g/100 g | Abdominal fat deposit (broilers [1]; 6w, 1,600 ppm in feed): 3.04 g/100 g | Abdominal fat deposit (broilers [1]; 8w, 100 ppm in feed): 3.72 g/100 g | Abdominal fat deposit (broilers [1]; 8w, 200 ppm in feed): 3.64 g/100 g | Abdominal fat deposit (broilers [1]; 8w, 400 ppm in feed): 3.38 g/100 g | Abdominal fat deposit (broilers [1]; 8w, 800 ppm in feed): 3.35 g/100 g | Abdominal fat deposit (broilers [1]; 8w, 1,600 ppm in feed): 3.32 g/100 g | Abdominal fat deposit (broilers [1]; 10w, 100 ppm in feed): 4.18 g/100 g | Abdominal fat deposit (broilers [1]; 10w, 200 ppm in feed): 4.03 g/100 g | Abdominal fat deposit (broilers [1]; 10w, 400 ppm in feed): 3.97 g/100 g | Abdominal fat deposit (broilers [1]; 10w, 800 ppm in feed): 3.85 g/100 g | Abdominal fat deposit (broilers [1]; 10w, 1,600 ppm in feed): 3.78 g/100 g | Eggshell strength (laying hens [2]; 509th day, 5 ppm in feed): 2.40 kg | Eggshell strength (laying hens [2]; 509th day, 25 ppm in feed): 2.47 kg | Eggshell strength (laying hens [2]; 509th day, 125 ppm in feed): 2.39 kg | Eggshell strength (laying hens [2]; 509th day, 625 ppm in feed): 2.42 kg | Eggshell strength (laying hens [2]; 555th day, 5 ppm in feed): 2.75 kg | Eggshell strength (laying hens [2]; 555th day, 25 ppm in feed): 2.88 kg | Eggshell strength (laying hens [2]; 555th day, 125 ppm in feed): 2.95 kg | Eggshell strength (laying hens [2]; 555th day, 625 ppm in feed): 3.01 kg | Eggshell strength (laying hens [2]; 612th day, 5 ppm in feed): 2.74 kg | Eggshell strength (laying hens [2]; 612th day, 25 ppm in feed): 2.99 kg | Eggshell strength (laying hens [2]; 612th day, 125 ppm in feed): 3.11 kg | Eggshell strength (laying hens [2]; 612th day, 625 ppm in feed): 3.07 kg | LD50 (LD50 mouse (male)): 1350 mg/kg | Body weight at week age 0 ([3]; 100 ppm in feed from 3 week age): 41 g | Body weight at week age 0 ([3]; 200 ppm in feed from 3 week age): 41 g | Body weight at week age 0 ([3]; 400 ppm in feed from 3 week age): 41 g | Body weight at week age 0 ([3]; 800 ppm in feed from 3 week age): 41 g | Body weight at week age 0 ([3]; 1,600 ppm in feed from 3 week age): 41 g | Body weight at week age 3 ([3]; 100 ppm in feed): 628 g | Body weight at week age 3 ([3]; 200 ppm in feed): 623 g | Body weight at week age 3 ([3]; 400 ppm in feed): 624 g | Body weight at week age 3 ([3]; 800 ppm in feed): 622 g | Body weight at week age 3 ([3]; 1,600 ppm in feed): 624 g | Body weight at week age 4 ([3]; 100 ppm in feed): 978 g | Body weight at week age 4 ([3]; 200 ppm in feed): 983 g | Body weight at week age 4 ([3]; 400 ppm in feed): 984 g | Body weight at week age 4 ([3]; 800 ppm in feed): 981 g | Body weight at week age 4 ([3]; 1,600 ppm in feed): 980 g | Body weight at week age 5 ([3]; 100 ppm in feed): 1,326 g | Body weight at week age 5 ([3]; 200 ppm in feed): 1,340 g | Body weight at week age 5 ([3]; 400 ppm in feed): 1,338 g | Body weight at week age 5 ([3]; 800 ppm in feed): 1,332 g | Body weight at week age 5 ([3]; 1,600 ppm in feed): 1,328 g | Body weight at week age 6 ([3]; 100 ppm in feed): 1,672 g | Body weight at week age 6 ([3]; 200 ppm in feed): 1,662 g | Body weight at week age 6 ([3]; 400 ppm in feed): 1,652 g | Body weight at week age 6 ([3]; 800 ppm in feed): 1,657 g | Body weight at week age 6 ([3]; 1,600 ppm in feed): 1,663 g | Body weight at week age 7 ([3]; 100 ppm in feed): 2,602 g | Body weight at week age 7 ([3]; 200 ppm in feed): 2,108 g | Body weight at week age 7 ([3]; 400 ppm in feed): 2,112 g | Body weight at week age 7 ([3]; 800 ppm in feed): 2,063 g | Body weight at week age 7 ([3]; 1,600 ppm in feed): 2,102 g | Body weight at week age 8 ([3]; 100 ppm in feed): 2,492 g | Body weight at week age 8 ([3]; 200 ppm in feed): 2,487 g | Body weight at week age 8 ([3]; 400 ppm in feed): 2,505 g | Body weight at week age 8 ([3]; 800 ppm in feed): 2,501 g | Body weight at week age 8 ([3]; 1,600 ppm in feed): 2,483 g | Body weight at week age 9 ([3]; 100 ppm in feed): 2,880 g | Body weight at week age 9 ([3]; 200 ppm in feed): 2,873 g | Body weight at week age 9 ([3]; 400 ppm in feed): 2,865 g | Body weight at week age 9 ([3]; 800 ppm in feed): 2,858 g | Body weight at week age 9 ([3]; 1,600 ppm in feed): 2,864 g | Body weight at week age 10 ([3]; 100 ppm in feed): 3,107 g | Body weight at week age 10 ([3]; 200 ppm in feed): 3,112 g | Body weight at week age 10 ([3]; 400 ppm in feed): 3,086 g | Body weight at week age 10 ([3]; 800 ppm in feed): 3,024 g | Body weight at week age 10 ([3]; 1,600 ppm in feed): 3,033 g | Crude fat content in liver (broilers [4]; 6w, 100 ppm in feed): 2.23% | Crude fat content in liver (broilers [4]; 6w, 200 ppm in feed): 2.03% | Crude fat content in liver (broilers [4]; 6w, 400 ppm in feed): 2.15% | Crude fat content in liver (broilers [4]; 6w, 800 ppm in feed): 2.14% | Crude fat content in liver (broilers [4]; 6w, 1,600 ppm in feed): 2.08% | Crude fat content in liver (broilers [4]; 8w, 100 ppm in feed): 5.51% | Crude fat content in liver (broilers [4]; 8w, 200 ppm in feed): 4.97% | Crude fat content in liver (broilers [4]; 8w, 400 ppm in feed): 4.53% | Crude fat content in liver (broilers [4]; 8w, 800 ppm in feed): 4.26% | Crude fat content in liver (broilers [4]; 8w, 1,600 ppm in feed): 4.32% | Crude fat content in liver (broilers [4]; 10w, 100 ppm in feed): 5.09% | Crude fat content in liver (broilers [4]; 10w, 200 ppm in feed): 4.33% | Crude fat content in liver (broilers [4]; 10w, 400 ppm in feed): 4.26% | Crude fat content in liver (broilers [4]; 10w, 800 ppm in feed): 4.33% | Crude fat content in liver (broilers [4]; 10w, 1,600 ppm in feed): 4.32% | Eggshell thickness (laying hens [5]; 509th day, 5 ppm in feed): 0.328 mm | Eggshell thickness (laying hens [5]; 509th day, 25 ppm in feed): 0.345 mm | Eggshell thickness (laying hens [5]; 509th day, 125 ppm in feed): 0.343 mm | Eggshell thickness (laying hens [5]; 509th day, 625 ppm in feed): 0.325 mm | Eggshell thickness (laying hens [5]; 555th day, 5 ppm in feed): 0.341 mm | Eggshell thickness (laying hens [5]; 555th day, 25 ppm in feed): 0.345 mm | Eggshell thickness (laying hens [5]; 555th day, 125 ppm in feed): 0.340 mm | Eggshell thickness (laying hens [5]; 555th day, 625 ppm in feed): 0.346 mm | Eggshell thickness (laying hens [5]; 612th day, 5 ppm in feed): 0.344 mm | Eggshell thickness (laying hens [5]; 612th day, 25 ppm in feed): 0.341 mm | Eggshell thickness (laying hens [5]; 612th day, 125 ppm in feed): 0.342 mm | Eggshell thickness (laying hens [5]; 612th day, 625 ppm in feed): 0.348 mm
